Assays:
[1] = test system: Isolated Rat Aortic Tissue; assay: Aortic smooth muscle relaxing activity: inhibition of KCl-evoked contracture in isolated rat aortic rings; format: cell-based, Sprague-Dawley rats; conditions: isolated rat thoracic aorta rings, 25 mM KCl; read-out: IC50 of Aorta Contraction
Excerpt: Aortic smooth muscle relaxing activity of the compounds of this invention was established in accordance with standard pharmaceutically accepted test procedures in representative compounds as follows:
Sprague-Dawley rats (150-200 g) are rendered unconscious by CO2 asphyxiation and then euthanized by cervical dislocation. The thoracic aorta is removed into warm (37 deg. C.) Krebs-Henseleit solution. The aorta is cleaned of fat and loose adventitia and cut into rings 3-4 mm in width. The rings are subsequently suspended between two stainless steel wire tissue holders in a 10 ml tissue bath. One wire tissue holder is attached to fixed hook while the other is attached to an isometric force transducer. Resting tension is set at 1.0 g. The tissues are allowed to recover for a period of 60 mins prior to beginning the experiment. The tissues are challenged with 25 mM KCl to elicit a contracture. The tissue are then washed repeatedly with fresh Krebs-Henseleit solution over a period of 30 rains and allowed to recover to baseline tension. 25 mM KCl is then introduced into the tissue bath to evoke a contracture that is allowed to stabilize for not less than 45 rains. Increasing concentrations of test compound or vehicle are then added to the tissue bath in a cumulative fashion.
Isometric force developed by the aortic rings is measured using force transducer and recorded on a polygraph. The percentage inhibition of contractile force evoked by each concentration of a given test compound is used to generate a concentration-response curve. The concentration required to elicit 50% inhibition of pre-drug contractile activity (IC50 concentration) is calculated from this concentration-response curve. The maximum percentage inhibition of contractile activity evoked by a test compound is also recorded for concentrations of test compound<or equal to 30 uM.

[2] = test system: Isolated Rat Bladder; assay: Bladder smooth muscle relaxing activity: inhibition of KCl-enhanced contractions in isolated rat bladder strips; format: cell-based, Sprague-Dawley rats; conditions: 15 mM KCl; for IC50: 37 deg. C, read-out: IC50 of Bladder Contraction; for inhibition at up to 30 µM: at 30 μM, value in parentheses, read-out: % Inhibition of Bladder Contraction at 30 μM
Excerpt: Bladder smooth muscle relaxing activity of the compounds of this invention was established in accordance with standard pharmaceutically accepted test procedures in representative compounds as follows:
Sprague-Dawley rats (150-200 g) are rendered unconscious by CO2 asphyxiation and then euthanized by cervical dislocation. The bladder is removed into warm (37 deg. C) physiological salt solution (PSS) of the following composition (mM): NaCl, 118.4; KCl, 4.7; CaCl2, 2.5; […]; NaHCO3, 24.9; KH2 PO4, 1.2; glucose, 11.1; EDTA, 0.023; gassed with […]; pH 7.4. The bladder is opened and then cut into strips 1-2 mm in width and 7-10 mm in length. The strips are subsequently suspended in a 10 ml tissue bath under an initial resting tension of 1.5 g. The strips are held in place by two surgical clips one of which is attached to fixed hook while the other is attached to an isometric force transducer. […] The carbachol is then washed out and the tissue allowed to relax to its resting level of activity. Following 1 further 30 min period of recovery an additional 15 mM KCl are introduced into the tissue bath. This increase in KCl concentration results in a large increase in the amplitude of spontaneous contractions (and initiation of contractions in previously quiescent strips) superimposed upon a small increase in basal tone. Following stabilization of this enhanced level of contractile activity, incremental increases in the concentration of test compound or vehicle are introduced into the tissue bath. Contractile activity is measured for each compound or vehicle concentration during the last rain of a 30 rain challenge.
Isometric force developed by the bladder strips is measured using a […] to elicit 50% inhibition of pre-drug contractile activity (IC50 concentration) is calculated from this concentration-response curve. The maximum percentage inhibition of contractile activity evoked by a test compound is also recorded for concentrations of test compound<or equal to 30 uM.

CC(C)Oc1c(-c2ccc3c(c2)[C@@H](N2Cc4ccccc4C2=O)[C@H](O)C(C)(C)O3)c(=O)c1=O (relative stereo) [Example 3, 3-[trans-3-hydroxy-2,2-dimethyl-4-(1-oxo-1,3-dihydroisoindol-2-yl)-chroman-6-yl]-4-isopropoxy-cyclobut-3-ene-1,2-dione]
IC50 [1]: 1160 ± 210 nM
IC50 [2]: 10100 ± 390 nM

Cc1c(-c2ccc3c(c2)[C@@H](N2Cc4ccccc4C2=O)[C@H](O)C(C)(C)O3)c(=O)c1=O (relative stereo) [Example 9, 3-[trans-3-Hydroxy-2,2-dimethyl-4-(1-oxo-1,3-dihydro-isoindol-2-yl)-chroman-6-yl]-4-methyl-cyciobut-3-ene-1,2-dione]
IC50 [1]: 15 ± 7 nM
IC50 [2]: 110 nM

CNc1c(-c2ccc3c(c2)[C@@H](N2Cc4ccccc4C2=O)[C@H](O)C(C)(C)O3)c(=O)c1=O (relative stereo) [Example 7, 3-[trans-3-Hydroxy-2,2-dimethyl-4-(1-oxo-1,3-dihydroisoindol-2-yl)-chroman-6-yl]-4-methylamino-cyclobut-3-ene-1,2-dione]
IC50 [1]: 830 ± 240 nM
IC50 [2]: 1620 nM

CC1(C)Oc2ccc(-c3c(O)c(=O)c3=O)cc2[C@@H](N2Cc3ccccc3C2=O)[C@@H]1O (relative stereo) [Example 8, 3-Hydroxy-4-[trans-3-hydroxy-2,2-dimethyl-4-(1-oxo-1,3-dihydroisoindol-2-yl)-chroman-6-yl]-cyclobut-3-ene-1,2-dione]
IC50 [2]: 21900 nM

CC1(C)Oc2ccc(-c3c(NCCO)c(=O)c3=O)cc2[C@@H](N2Cc3ccccc3C2=O)[C@@H]1O (relative stereo) [Example 5, 3-[trans-3-Hydroxy-2,2-dimethyl-4-(1-oxo-1,3-dihydroisoindol-2-yl),-chroman-6-yl]-4-(2-hydroxy-ethylamino)-cyclobut-3-ene-1,2-dione]
inhibition at up to 30 µM [2]: 14%

CC1(C)Oc2ccc(-c3c(N4CCCC4)c(=O)c3=O)cc2[C@@H](N2Cc3ccccc3C2=O)[C@@H]1O (relative stereo) [Example 6, 3-[trans-3-Hydroxy-2,2-dimethyl-4-(1-oxo-1,3-dihydroisoindol-2-yl)-chroman-6-yl]-4-pyrrolindin-1-yl-cyclobut-3-ene-1,2-dione]
inhibition at up to 30 µM [2]: 33%

CC1(C)Oc2ccc(-c3c(N)c(=O)c3=O)cc2[C@@H](N2Cc3ccccc3C2=O)[C@@H]1O (relative stereo) [Example 4, 4-Amino-3-[trans-3-hydroxy-2,2-dimethyl-4-(1-oxo-1,3-dihydroisoindol-2-yl)-chroman-6-yl]-cyclobut-3-ene-1,2-dione]
IC50 [1]: 170 ± 40 nM
IC50 [2]: 190 ± 20 nM
